Test results as given in patent US20260250278A1, “PHENYL-SUBSTITUTED DIHYDRONAPHTHYRIDINE COMPOUNDS, AND PREPARATION AND USE THEREOF” (SUZHONG PHARMACEUTICAL GROUP CO., LTD., priority 2022, published 2026).

Experiments:
[1] = Pharmacokinetic test of mice (intravenous administration); type: in vivo; conditions: mouse, plasma; CD1 mice, intravenous 1 mg/kg
Description: This experiment was intended to evaluate a pharmacokinetic behavior of a compound after intravenous injection or intragastric administration in the mice. Intravenous injection administration: a test compound was prepared into 0.2 mg/mL clear solution, a solvent was 10% ethanol/40% polyethylene glycol 400/50% ultrapure water, and after administration, plasma was collected 0.083 hour, 0.25 hour, 0.5 hour, 1 hour, 2 hours, 4 hours, 8 hours, 24 hours and 48 hours later.
(§1) A concentration of the test compound in the plasma was determined by high-performance liquid chromatography-tandem mass spectrometry (LC-MS/MS). Retention time, chromatogram collection and chromatogram integration of compounds and internal standards were treated by software Analyst (Applied Biosystems), and data statistics was treated by software Analyst (Applied Biosystems).
(§2) A plasma concentration was treated by a non-atrioventricular model of Winnonlin™ Version 6.1 (Pharsight, Mountain View, CA) pharmacokinetic software, and pharmacokinetic parameters were calculated by a linear logarithmic trapezoid method.

[2] = Pharmacokinetic test of rats (intravenous and intragastric administration); type: in vivo; conditions: SD rats
Description: This experiment was intended to evaluate a pharmacokinetic behavior of an implementing compound after intravenous injection or intragastric administration in the rats. Intravenous injection administration: a test compound was prepared into 0.2 mg/mL clear solution, a solvent was 10% ethanol, 40% polyethylene glycol 400 and 50% water, and after administration, plasma was collected 0.083 hour, 0.25 hour, 0.5 hour, 1 hour, 2 hours, 4 hours, 8 hours and 24 hours later. Intragastric administration: a test compound was prepared into 1 mg/mL clear solution, a solvent was 10% ethanol/40% polyethylene glycol 400/50% water, and after administration, plasma was collected 0.25 hour, 0.5 hour, 1 hour, 2 hours, 4 hours, 8 hours and 24 hours later.
as §1, §2
Pharmacokinetic parameters of the compounds in the rats with an intravenous injection dose of 1 mg/kg and an intragastric and oral dose of 5 mg/kg were as shown in Table 20 below.

CYP3A4 = CYP3A4 (Homo sapiens, UniProt P08684); experiment: biochemical; type: in vitro ADME
CYP3A4, sequence (P08684 2-503 limits assumed): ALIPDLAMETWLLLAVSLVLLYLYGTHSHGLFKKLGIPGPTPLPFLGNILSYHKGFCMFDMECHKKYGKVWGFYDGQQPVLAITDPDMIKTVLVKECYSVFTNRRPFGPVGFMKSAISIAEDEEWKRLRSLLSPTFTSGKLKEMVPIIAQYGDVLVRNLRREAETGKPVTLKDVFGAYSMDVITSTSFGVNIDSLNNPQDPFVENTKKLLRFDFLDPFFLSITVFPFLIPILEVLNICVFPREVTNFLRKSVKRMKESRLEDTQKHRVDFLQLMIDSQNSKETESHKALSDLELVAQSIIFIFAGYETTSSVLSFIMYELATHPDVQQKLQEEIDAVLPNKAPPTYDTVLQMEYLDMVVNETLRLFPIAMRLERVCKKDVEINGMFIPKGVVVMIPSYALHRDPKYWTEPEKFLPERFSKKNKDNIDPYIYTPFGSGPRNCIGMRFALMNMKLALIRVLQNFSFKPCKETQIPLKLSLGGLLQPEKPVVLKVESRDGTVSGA

[3] = rat, plasma, intragastric and oral administration 5 mg/kg
[4] = rat, plasma, intravenous 1 mg/kg

Work on CCOc1nc2ccsc2c2c1[C@H](c1ccc(C#N)cc1OC)C(C(N)=O)=C(C)N2 [Example 38, (S)-6-(4-cyano-2-methoxyphenyl)-5-ethoxy-8-methyl-6,9-dihydrothieno[3,2-h][1,6]naphthyridine-7-formamide] yielded an AUC(0-t) [1] of 2.55 µg·h/mL.

For CCOc1ncc(C)c2c1[C@H](c1ccc(C#N)cc1OC)C(C(N)=O)=C(C)N2 [Finerenone, reference compound], the F ([2]; intragastric and oral administration 5 mg/kg) was 60.3%, the AUC(0-t) [2, 3] was 307 µg·h/mL and the Cmax [2, 3] was 23800 ng/mL. It also gave an AUC(0-t) [2, 4] of 91.2 µg·h/mL, a clearance [2, 4] of 0.34 mL/min/kg and a half-life [2, 4] of 9.62 h. The IC50 (CYP3A4; CYP3A4-5M IC50, human CYP3A4, CYP3A4-5M) was 9.98 µM, the IC50 (CYP3A4; CYP3A4-5T IC50, human CYP3A4, CYP3A4-5T) was 8.02 µM and the AUC(0-t) [1] was 142 µg·h/mL.
